# Values joined by “and” are separate entries in the source; they are usually repeats but may differ in a detail not shown here. Equal values may be shown once. Read-outs that look alike come from different tables or passages of the source.
# B1: TaPCS1: wheat (Triticum aestivum) phytochelatin synthase, SEQ ID NO: 6 (protein, UniProt Q9SWW5 1-500, looked up)
# Glutathione …: MEVASLYRRVLPSPPAVEFASAEGKRLFAEALQGGTMEGFFNLISYFQTQSEPAFCGLASLSVVLNALAIDPGRPWKGPWRWFDESMLDCCEPLHKVKAEGITFGKVVCLAHCAGARVQSFRADQTTIHDFRAHLTRCASSQDCHLISSYHRSPFKQTGTGHFSPIGGYHAEKDMALILDVARFKYPPHWVPLTLLWDAMNTTDEATGLLRGFMLVSRRSSAPSLLYTVSCGHGSWKSMAKYCVEDVPNLLKDESLDNVTTLLSRLVESLPANAGDLIKCVIEVRRKEEGESSLSKEEKERLFLKEKVLQQIRDTDLFRVVHELQYPKGLCGSCSSSSDEDSLAEIAATVCCQGAAFLSGNLVSRDGFCCRETCIKCIEANGDGLKTVISGTVVSKGNEQAVDLLLPTSSSKTSLCNSNLKSKIVKYPSSTDVLTVLLLVLQPNTWLGIKDENVKAEFQSLVSTDNLPDLLKQEILHLRRQLHYLAGCKGQEACQEPPSP
# B2: AtPCS1-FLAG (protein, UniProt Q9S7Z3 1-485, looked up)
# Glutathione …: MAMASLYRRSLPSPPAIDFSSAEGKLIFNEALQKGTMEGFFRLISYFQTQSEPAYCGLASLSVVLNALSIDPGRKWKGPWRWFDESMLDCCEPLEVVKEKGISFGKVVCLAHCSGAKVEAFRTSQSTIDDFRKFVVKCTSSENCHMISTYHRGVFKQTGTGHFSPIGGYNAERDMALILDVARFKYPPHWVPLKLLWEAMDSIDQSTGKRRGFMLISRPHREPGLLYTLSCKDESWIEIAKYLKEDVPRLVSSQHVDSVEKIISVVFKSLPSNFNQFIRWVAEIRITEDSNQNLSAEEKSRLKLKQLVLKEVHETELFKHINKFLSTVGYEDSLTYAAAKACCQGAEILSGSPSKEFCCRETCVKCIKGPDDSEGTVVTGVVVRDGNEQKVDLLVPSTQTECECGPEATYPAGNDVFTALLLALPPQTWSGIKDQALMHEMKQLISMASLPTLLQEEVLHLRRQLQLLKRCQENKEEDDLAAPAY
# modifications: FLAG tag
# B3: AtPCS1: Arabidopsis thaliana phytochelatin synthase, 55 kDa, SEQ ID NO: 2 (protein, UniProt Q9S7Z3 1-485, looked up)
# Glutathione …: B2 Glutathione …
# Assays:
# [1] = tested on: S. cerevisiae ycf1Δ mutant strain DTY167; type: cell-based; conditions: for IC50: read-out: concentration required for 50% attenuation of cell density
# [2] = tested on: S. cerevisiae cells expressing TaPCS1; conditions: 6 hour preincubation, 200 μM Cd2+, OD 18 hours after Cd2+
# [3] = tested on: S. cerevisiae cells expressing an Arabidopsis metallothionein; test: Growth in presence of Cd2+ after BSO preincubation, metallothionein cells; type: cell-based; conditions: 6 hour preincubation, 60 μM Cd2+, OD 18 hours after Cd2+
# Method: FIG. 13A is a graph depicting phytochelatin synthesis in cells expressing PCS. The growth of S. cerevisiae cells expressing either TaPCS1 (circles) or an Arabidopsis metallothionein (squares) in the presence of Cd^2+ (200 μM for TAPCS1 and 60 μM for metallothionein) following a 6 hour preincubation using different concentrations of BSO (L-Buthionine-sulfoxime), a glutathione synthesis inhibitor. The OD was measured 18 hours after the addition of Cd^2+.
# [4] = tested on: S. cerevisiae INVSc1 cells; test: Cd2+ dose-response growth of TaPCS1-expressing and control yeast cells; type: cell-based; conditions: YNB 1% sucrose/1% galactose, OD600 after 24 hours, read-out: K0.5 for growth
# TaPCS1 message = test: Competitive PCR of TaPCS1 expression in wheat roots; type: in vivo; conditions: wheat roots treated with 100 μM Cd2+ for 6 hours versus untreated
# S. cerevisiae cells = test: Cd2+ accumulation using 109Cd2+; type: cell-based; conditions: versus empty pYES2 cells; 24 hour culture, non-inhibitory Cd2+ concentrations, n=3
# Method: FIG. 10 is a graph depicting the greater accumulation of Cd^2+ by cells expressing TaPCS1 compared to the Cd^2+ accumulation by control cells. Yeast cells carrying the empty pYES2 plasmid (white bars) and TaPCS1-expressing cells (black bars) were grown in arginine-phosphate medium containing different non-inhibitory Cd^2+ concentrations. After 24 hours, the cells were harvested and washed and the amount of Cd^2+ accumulated inside the cells was determined using ^109 Cd^2+ (Error bars=S.E., n=3).
# S. cerevisiae cells were grown in arginine-phosphate medium for 24 hours in the presence of various amounts of CdCl2 containing 0.5 μCi ^109Cd^2+. The cells were harvested and washed. The radioactivity was determined as described previously (Clemens et al., 1998, Proc. Natl. Acad. Sci. U.S.A. 95:12043-12048).
# [5] = Equilibrium dialysis of purified AtPCS1-FLAG against 109CdCl2; type: binding; conditions: immunoaffinity-purified protein
# Method: The binding of Cd^2+ was determined by equilibrium dialysis of a 400-800 μl (160 μg) sample of purified AtPCS1-FLAG against 80 ml volumes of 10 mM Tris-HCl buffer, pH 7.8, containing 0.05 to 20 μM ^109CdCl2 (specific activity 22 Ci/mol, Amersham Pharmacia Biotech, Piscataway, N.J.) for 12 hours at 4° C. in 2 ml mini-collodion membrane tubes (molecular weight cut-off of 25,000; Schleicher and Schuell, Inc., Keene, N.H.). Protein-bound ^109Cd was estimated by measuring the radioactivity of the bulk medium outside the dialysis tube and that of the solution within the dialysis tube and determining the increase in ^109Cd radioactivity consequent on AtPCS1-FLAG. Binding constants and stoichiometries of binding were estimated by nonlinear least squares analysis (Marquardt, 1963, J. Soc. Ind. Appl. Math. 11:431-441) using the Ultrafit nonlinear curve fitting package from BioSoft (Ferguson, Mo.).
# [6] = PC synthase activity assay (incorporation of GSH into PC2 and PC3); type: biochemical; conditions: for aggregate rate of incorporation of GSH into PC2 and PC3: purified protein
# Method: PC synthase activity was assayed according to Grill et al. (1989, Proc. Natl. Acad. Sci. U.S.A. 86:6838-6842) in reaction media containing crude soluble fraction (50 μg protein), purified AtPCS1-FLAG (0.5 μg) or no protein, 3.3 mM GSH, 10 mM 2-mercaptoethanol and 200 mM Tris-HCl buffer (pH 8.0) plus or minus 200 μM CdCl2 at 37° C. for 40 minutes. After terminating the reactions with 5% (w/v) 5-sulfosalicylic acid, PCs were estimated in the supernatant by reverse-phase FPLC and reaction with DTNB.
# S. cerevisiae = test: Growth of PCS-expressing yeast on YNB medium with 100 μM Cd2+; type: cell-based
molecule,measurement,setting,value
O=[As]O [AsO2^−],fold increase in concentration exerting 50% inhibition of growth in liquid culture,[1],1.6 fold
same,IC50,[1],200 µM and 325 µM
"CCCCS(=N)(=O)CCC(N)C(=O)O [BSO, L-Buthionine-sulfoxime]",effect on TaPCS1-mediated Cd2+ tolerance,[2],reduced the TaPCS1-mediated Cd^2+ tolerance in a dose-dependent manner
same,effect on metallothionein-dependent Cd2+ tolerance,[3],no effect
"[Cl][Cd][Cl] [Cd^2+, CdCl2]",IC50,[4]; TaPCS1-expressing cells,90 µM
same,IC50,[4]; control cells with empty pYES2,6 µM
same,fold increase in concentration exerting 50% inhibition of growth in liquid culture,[1],24 fold
same,fold higher concentration of TaPCS1 message,TaPCS1 message,5-10 fold
[Cu+2] [Cu^2+],fold increase in concentration exerting 50% inhibition of growth in liquid culture,[1],2.4 fold
[Hg+2] [Hg^2+],fold increase in concentration exerting 50% inhibition of growth in liquid culture,[1],1.6 fold
same,IC50,[1],4 µM and 6.3 µM
B1,increase in Cd2+ accumulation,S. cerevisiae cells,30-50%
B2,stoichiometric ratio of Cd2+ binding (cadmium per AtPCS1),[5],7.09±0.94
same,aggregate rate of incorporation of GSH into PC2 and PC3,[6]; absence of Cd2+,< 0.01 nmol/mg/min
same,aggregate rate of incorporation of GSH into PC2 and PC3,"[6]; presence of Cd2+ (200 μM CdCl2), 3.3 mM GSH, 37° C.",30000 to 35000 nmol/mg/min
same,catalytic activity exceeding that of previous preparations from plants,"[6]; versus Grill et al., 1989",more than 10^3 fold
B3,Cd2+ tolerance conferred when expressed in S. cerevisiae,S. cerevisiae,strong Cd^2+ tolerance
same,stoichiometric ratio of Cd2+ binding (cadmium per AtPCS1),[5],approximately 6

# Source: patent US6489537B1 (priority 1998, dated 2002)
